Assays:
[1] = Tumor pharmacokinetic study, 30 mg/kg IV QDx6; assay type: in vivo, mice
protein kinases [2] = target: protein kinases (Homo sapiens, UniProt O15111); experiment: Kinase inhibition, percentage of activity at 0.5 μM, standardized radiometric kinase assays; assay type: biochemical; conditions: IKKα(h);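 note: each kinase tested separately, with activity read as 33P-labelled substrate protein captured on filters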
protein kinases [3] = target: protein kinases (Homo sapiens, UniProt O43293); experiment: as above; assay type: biochemical; conditions: ZIPK(h)
protein kinases [4] = target: protein kinases (Homo sapiens, UniProt P04629); experiment: as above; assay type: biochemical; conditions: TrkA(h)
protein kinases [5] = target: protein kinases (Homo sapiens, UniProt P07332); experiment: as above; assay type: biochemical; conditions: Fes(h)
protein kinases [6] = target: protein kinases (Homo sapiens, UniProt P07947); experiment: as above; assay type: biochemical; conditions: Yes(h)
protein kinases [7] = target: protein kinases (Homo sapiens, UniProt P08631); experiment: as above; assay type: biochemical; conditions: Hck(h)
protein kinases [8] = target: protein kinases (Homo sapiens, UniProt P10721); experiment: as above; assay type: biochemical; conditions: cKit(h)
protein kinases [9] = target: protein kinases (Homo sapiens, UniProt P16234); experiment: as above; assay type: biochemical; conditions: PDGFRα(h)
protein kinases [10] = target: protein kinases (Homo sapiens, UniProt P16234, D842V); experiment: as above; assay type: biochemical; conditions: PDGFRα(D842V)(h)
protein kinases [11] = target: protein kinases (Homo sapiens, UniProt P16591); experiment: as above; assay type: biochemical; conditions: Fer(h)
protein kinases [12] = target: protein kinases (Homo sapiens, UniProt P17612); experiment: as above; assay type: biochemical; conditions: PKA(h)
protein kinases [13] = target: protein kinases (Homo sapiens, UniProt P23443); experiment: as above; assay type: biochemical; conditions: p70S6K(h)
protein kinases [14] = target: protein kinases (Homo sapiens, UniProt P36888); experiment: as above; assay type: biochemical; conditions: Flt3(h)
protein kinases [15] = target: protein kinases (Homo sapiens, UniProt P43403); experiment: as above; assay type: biochemical; conditions: ZAP-70(h)
protein kinases [16] = target: protein kinases (Homo sapiens, UniProt P51813); experiment: as above; assay type: biochemical; conditions: Bmx(h)
protein kinases [17] = target: protein kinases (Homo sapiens, UniProt Q02750); experiment: as above; assay type: biochemical; conditions: MEK1(h)
protein kinases [18] = target: protein kinases (Homo sapiens, UniProt Q04759); experiment: as above; assay type: biochemical; conditions: PKC0(h)
protein kinases [19] = target: protein kinases (Homo sapiens, UniProt Q04912); experiment: as above; assay type: biochemical; conditions: Ron(h)
protein kinases [20] = target: protein kinases (Homo sapiens, UniProt Q05397); experiment: as above; assay type: biochemical; conditions: FAK(h)
protein kinases [21] = target: protein kinases (Homo sapiens, UniProt Q13177); experiment: as above; assay type: biochemical; conditions: PAK2(h)
protein kinases [22] = target: protein kinases (Homo sapiens, UniProt Q14012); experiment: as above; assay type: biochemical; conditions: CaMKI(h)
protein kinases [23] = target: protein kinases (Homo sapiens, UniProt Q14680); experiment: as above; assay type: biochemical; conditions: MELK(h)
protein kinases [24] = target: protein kinases (Homo sapiens, UniProt Q15418); experiment: as above; assay type: biochemical; conditions: Rsk1(h)
protein kinases [25] = target: protein kinases (Homo sapiens, UniProt Q16832); experiment: as above; assay type: biochemical; conditions: DDR2(h)
protein kinases [26] = target: protein kinases (Homo sapiens, UniProt Q96SB4); experiment: as above; assay type: biochemical; conditions: SRPK1(h)
protein kinases [27] = target: protein kinases (Homo sapiens, UniProt Q99683); experiment: as above; assay type: biochemical; conditions: ASK1(h)
protein kinases [28] = experiment: as above; assay type: biochemical; conditions: MAPK1(h)

protein kinases (Homo sapiens, UniProt P07947), sequence (P07947 2-543 limits assumed): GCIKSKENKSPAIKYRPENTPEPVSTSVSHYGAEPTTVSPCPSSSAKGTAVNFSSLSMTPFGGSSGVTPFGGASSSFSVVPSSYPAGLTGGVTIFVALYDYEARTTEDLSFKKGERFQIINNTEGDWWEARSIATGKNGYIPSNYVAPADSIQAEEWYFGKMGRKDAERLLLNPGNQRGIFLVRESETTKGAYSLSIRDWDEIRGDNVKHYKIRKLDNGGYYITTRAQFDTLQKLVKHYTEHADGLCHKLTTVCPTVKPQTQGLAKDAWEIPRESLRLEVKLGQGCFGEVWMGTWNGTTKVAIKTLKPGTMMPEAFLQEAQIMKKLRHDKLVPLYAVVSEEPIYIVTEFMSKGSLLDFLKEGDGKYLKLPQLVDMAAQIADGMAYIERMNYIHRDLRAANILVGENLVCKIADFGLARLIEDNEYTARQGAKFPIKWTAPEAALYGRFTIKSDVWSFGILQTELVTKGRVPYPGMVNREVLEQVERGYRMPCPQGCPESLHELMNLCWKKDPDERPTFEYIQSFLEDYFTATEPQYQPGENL
protein kinases (Homo sapiens, UniProt Q05397), sequence (Q05397 2-1052 limits assumed): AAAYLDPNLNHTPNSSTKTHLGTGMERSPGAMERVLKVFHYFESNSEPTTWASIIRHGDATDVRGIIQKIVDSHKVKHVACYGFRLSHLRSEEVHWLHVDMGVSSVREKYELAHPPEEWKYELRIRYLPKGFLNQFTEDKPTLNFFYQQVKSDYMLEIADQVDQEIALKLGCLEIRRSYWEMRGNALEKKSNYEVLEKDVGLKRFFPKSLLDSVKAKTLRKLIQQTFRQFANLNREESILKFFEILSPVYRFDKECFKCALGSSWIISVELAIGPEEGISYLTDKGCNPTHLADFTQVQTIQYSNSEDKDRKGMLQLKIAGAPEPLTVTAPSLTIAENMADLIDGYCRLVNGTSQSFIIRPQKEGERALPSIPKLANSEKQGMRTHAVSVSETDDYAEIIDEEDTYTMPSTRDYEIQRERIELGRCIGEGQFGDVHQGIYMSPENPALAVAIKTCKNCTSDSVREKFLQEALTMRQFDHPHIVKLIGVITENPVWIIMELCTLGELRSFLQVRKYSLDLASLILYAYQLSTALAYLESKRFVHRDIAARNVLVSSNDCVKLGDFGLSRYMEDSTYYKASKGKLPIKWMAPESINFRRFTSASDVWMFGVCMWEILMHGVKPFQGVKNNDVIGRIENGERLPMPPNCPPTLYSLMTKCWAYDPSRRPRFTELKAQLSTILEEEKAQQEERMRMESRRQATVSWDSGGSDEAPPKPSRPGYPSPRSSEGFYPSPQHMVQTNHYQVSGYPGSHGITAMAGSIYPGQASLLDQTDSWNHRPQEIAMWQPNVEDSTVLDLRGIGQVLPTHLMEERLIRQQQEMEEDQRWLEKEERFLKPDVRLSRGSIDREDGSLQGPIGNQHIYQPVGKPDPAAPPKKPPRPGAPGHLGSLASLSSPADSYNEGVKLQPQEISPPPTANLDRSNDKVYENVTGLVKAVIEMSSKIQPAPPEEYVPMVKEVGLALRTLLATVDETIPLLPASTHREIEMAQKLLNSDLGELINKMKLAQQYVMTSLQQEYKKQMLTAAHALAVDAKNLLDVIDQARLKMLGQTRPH
protein kinases (Homo sapiens, UniProt P04629), sequence (P04629 33-796 limits assumed): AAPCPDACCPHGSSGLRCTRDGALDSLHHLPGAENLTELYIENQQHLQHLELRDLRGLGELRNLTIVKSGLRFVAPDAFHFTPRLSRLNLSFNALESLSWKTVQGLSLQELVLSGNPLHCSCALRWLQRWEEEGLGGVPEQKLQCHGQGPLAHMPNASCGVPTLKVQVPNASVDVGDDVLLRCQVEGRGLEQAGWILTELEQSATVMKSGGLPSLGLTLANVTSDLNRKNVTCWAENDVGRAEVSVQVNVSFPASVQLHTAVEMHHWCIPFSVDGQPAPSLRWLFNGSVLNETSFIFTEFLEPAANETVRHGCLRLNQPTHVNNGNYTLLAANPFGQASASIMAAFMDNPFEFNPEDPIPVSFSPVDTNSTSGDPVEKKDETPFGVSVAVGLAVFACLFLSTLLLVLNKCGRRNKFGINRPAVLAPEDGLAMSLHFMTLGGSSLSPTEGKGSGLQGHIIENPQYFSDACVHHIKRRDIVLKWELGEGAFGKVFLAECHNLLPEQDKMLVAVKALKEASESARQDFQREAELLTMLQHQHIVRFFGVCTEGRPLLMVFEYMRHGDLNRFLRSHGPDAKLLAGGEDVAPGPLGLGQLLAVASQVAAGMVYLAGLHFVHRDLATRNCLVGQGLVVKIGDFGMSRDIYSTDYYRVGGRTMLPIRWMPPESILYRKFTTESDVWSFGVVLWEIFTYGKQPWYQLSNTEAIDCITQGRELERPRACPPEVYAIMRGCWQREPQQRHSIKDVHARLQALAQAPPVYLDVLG
protein kinases (Homo sapiens, UniProt P36888), sequence (P36888 27-993 limits assumed): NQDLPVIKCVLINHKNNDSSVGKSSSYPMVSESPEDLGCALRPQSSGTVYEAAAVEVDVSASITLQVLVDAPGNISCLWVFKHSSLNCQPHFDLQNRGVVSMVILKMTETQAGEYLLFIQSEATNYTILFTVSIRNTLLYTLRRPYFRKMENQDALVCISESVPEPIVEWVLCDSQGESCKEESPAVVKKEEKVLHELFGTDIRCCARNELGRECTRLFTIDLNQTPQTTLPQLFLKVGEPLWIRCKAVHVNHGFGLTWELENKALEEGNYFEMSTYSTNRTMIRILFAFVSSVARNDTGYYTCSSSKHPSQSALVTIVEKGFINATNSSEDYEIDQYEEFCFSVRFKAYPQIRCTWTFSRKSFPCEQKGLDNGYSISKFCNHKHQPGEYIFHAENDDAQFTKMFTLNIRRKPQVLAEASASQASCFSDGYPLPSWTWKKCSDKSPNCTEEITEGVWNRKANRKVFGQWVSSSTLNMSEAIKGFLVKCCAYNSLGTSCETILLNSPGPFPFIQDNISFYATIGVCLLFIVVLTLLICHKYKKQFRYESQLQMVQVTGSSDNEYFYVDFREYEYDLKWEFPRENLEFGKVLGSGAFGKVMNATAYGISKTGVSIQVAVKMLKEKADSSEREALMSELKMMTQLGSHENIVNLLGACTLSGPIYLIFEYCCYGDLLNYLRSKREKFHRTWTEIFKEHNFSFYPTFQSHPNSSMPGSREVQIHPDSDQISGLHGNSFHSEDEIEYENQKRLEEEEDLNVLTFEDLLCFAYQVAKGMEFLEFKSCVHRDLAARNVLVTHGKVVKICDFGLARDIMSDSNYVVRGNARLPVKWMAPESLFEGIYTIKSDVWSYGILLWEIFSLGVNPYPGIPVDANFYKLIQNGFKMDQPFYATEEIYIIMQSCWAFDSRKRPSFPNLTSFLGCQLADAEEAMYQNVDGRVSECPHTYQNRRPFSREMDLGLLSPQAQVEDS
protein kinases (Homo sapiens, UniProt P10721), sequence (P10721 26-976 limits assumed): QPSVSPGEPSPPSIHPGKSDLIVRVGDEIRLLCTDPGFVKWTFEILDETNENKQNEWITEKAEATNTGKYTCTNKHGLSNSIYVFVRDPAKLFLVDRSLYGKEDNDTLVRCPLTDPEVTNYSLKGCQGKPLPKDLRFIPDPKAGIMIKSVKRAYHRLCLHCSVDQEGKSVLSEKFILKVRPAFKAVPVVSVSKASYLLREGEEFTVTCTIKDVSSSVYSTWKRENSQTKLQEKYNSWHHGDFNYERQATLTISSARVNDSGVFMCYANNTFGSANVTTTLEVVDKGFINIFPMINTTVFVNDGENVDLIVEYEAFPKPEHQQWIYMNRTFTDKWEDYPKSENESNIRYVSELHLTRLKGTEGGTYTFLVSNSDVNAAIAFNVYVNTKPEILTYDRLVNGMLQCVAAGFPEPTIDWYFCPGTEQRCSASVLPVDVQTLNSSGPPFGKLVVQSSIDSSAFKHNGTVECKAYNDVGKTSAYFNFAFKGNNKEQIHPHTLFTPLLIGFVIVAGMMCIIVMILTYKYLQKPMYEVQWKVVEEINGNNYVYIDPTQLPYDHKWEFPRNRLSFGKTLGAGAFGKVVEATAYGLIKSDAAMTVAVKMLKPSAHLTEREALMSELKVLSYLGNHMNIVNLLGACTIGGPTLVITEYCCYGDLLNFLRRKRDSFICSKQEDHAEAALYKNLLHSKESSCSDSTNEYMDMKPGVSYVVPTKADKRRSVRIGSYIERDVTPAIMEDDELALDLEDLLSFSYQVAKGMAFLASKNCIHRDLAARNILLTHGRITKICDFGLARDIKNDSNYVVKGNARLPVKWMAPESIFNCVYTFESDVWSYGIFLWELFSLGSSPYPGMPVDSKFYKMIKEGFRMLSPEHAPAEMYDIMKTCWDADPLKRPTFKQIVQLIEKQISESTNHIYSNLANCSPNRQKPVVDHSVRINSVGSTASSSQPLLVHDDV
protein kinases (Homo sapiens, UniProt P08631), sequence (P08631 2-526 limits assumed): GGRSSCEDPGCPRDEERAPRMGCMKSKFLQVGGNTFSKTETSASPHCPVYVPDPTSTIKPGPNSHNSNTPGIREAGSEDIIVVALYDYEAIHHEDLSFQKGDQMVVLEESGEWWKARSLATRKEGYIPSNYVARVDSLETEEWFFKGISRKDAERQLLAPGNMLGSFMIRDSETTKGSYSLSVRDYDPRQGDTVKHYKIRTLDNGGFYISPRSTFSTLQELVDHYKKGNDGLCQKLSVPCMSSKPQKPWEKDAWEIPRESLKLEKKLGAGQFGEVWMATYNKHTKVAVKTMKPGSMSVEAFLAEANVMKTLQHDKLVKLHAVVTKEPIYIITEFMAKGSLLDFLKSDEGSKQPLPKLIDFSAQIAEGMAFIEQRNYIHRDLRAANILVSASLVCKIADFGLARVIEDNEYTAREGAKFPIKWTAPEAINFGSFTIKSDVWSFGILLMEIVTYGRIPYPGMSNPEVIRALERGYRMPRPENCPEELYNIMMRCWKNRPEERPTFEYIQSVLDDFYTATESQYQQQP

For `C#Cc1cccc(Nc2nc3cc(C(=O)O)ccc3c3cncnc23)c1` [compound A2], the “Half life change on repeated dosing” value [1] was “about doubles”, the “Minimum concentration increase after six days” value [1] was 4-5 times higher and the “Time to steady state” value [1] was “about three days”. For the same compound, the activity at 0.5 µM (protein kinases [2]) was 101%, the activity at 0.5 µM (protein kinases [3]) was 12% and the activity at 0.5 µM (protein kinases [4]) was 90%. It also gave an activity at 0.5 µM (protein kinases [5]) of 139%, an activity at 0.5 µM (protein kinases [6]) of 109% and an activity at 0.5 µM (protein kinases [7]) of 111%. It also gave an activity at 0.5 µM (protein kinases [8]) of 114%, an activity at 0.5 µM (protein kinases [9]) of 109% and an activity at 0.5 µM (protein kinases [10]) of 109%. It also gave an activity at 0.5 µM (protein kinases [11]) of 103%, an activity at 0.5 µM (protein kinases [12]) of 90% and an activity at 0.5 µM (protein kinases [13]) of 80%. It also gave an activity at 0.5 µM (protein kinases [14]) of 42%, an activity at 0.5 µM (protein kinases [15]) of 118% and an activity at 0.5 µM (protein kinases [16]) of 118%. The activity at 0.5 µM (protein kinases [17]) was 136%, the activity at 0.5 µM (protein kinases [18]) was 111% and the activity at 0.5 µM (protein kinases [19]) was 106%. For the same compound, the activity at 0.5 µM (protein kinases [20]) was 97%, the activity at 0.5 µM (protein kinases [21]) was 112% and the activity at 0.5 µM (protein kinases [22]) was 104%. The activity at 0.5 µM (protein kinases [23]) was 49%, the activity at 0.5 µM (protein kinases [24]) was 78% and the activity at 0.5 µM (protein kinases [25]) was 109%. The activity at 0.5 µM (protein kinases [26]) was 66%, the activity at 0.5 µM (protein kinases [27]) was 116% and the “% activity at 0.5 μM” value (protein kinases [28]) was 95%.

— patent US9062043B2, “Fused tricyclic compounds as serine-threonine protein kinase and PARP modulators” (SENHWA BIOSCIENCES, INC., priority 2006, dated 2015)
